# Measurements: patent US12023336B2, “Antiviral drug compounds and composition thereof” (priority 2018, dated 2024)
# Structures can show the parent of a compound that is named as a salt.
# Test system: HIV-1NL4.3
# Assay: microbe, parasite or virus in culture
# Format: cell-based
# Details: 10 μM; HIV-1NL4.3 0.1 MOI; TZM-bl cells; luminescence 48 h
# Procedure: TZM-bl cells were seeded at the density of 12,000-15,000 cells/well of 96 well plate with 100 μL DMEM (with 10% FBS) in each well. 12-hours post seeding, the media was replaced with fresh DMEM containing HTV-1NL4.3 at 0.1 MOI and cells were treated with different molecules independently at 10 μM working concentration. Cells were incubated in humidified CO2 incubator for 4-hours. After incubation, the media was replaced and cells were washed twice with incomplete DMEM and 100 μL of complete DMEM was added in each wells along with the molecules of interest and incubated at 37° C. in humidified CO2 incubator. 48-hours post incubation, the media was removed and cells were washed twice with 100 μL of 1×PBS. After washing, cells were lysed using cell culture lysis reagent and Steady-Glo substrate was added at 1:1 ration in each well. Luminescence was measured using Molecular Devices M5 (Table 2). % Inhibition was calculated using following formula and plotted.
# [formula] (RLU=Relative Luminescence Unit)
row,Structure (SMILES),% Inhibition at 10 μM Concentration
1,N[C@@H](Cn1oc(=O)[nH]c1=O)C(=O)O [(+)-Quisqualic acid],99.30%
2,Oc1ccc(/C=C/c2ccc(/C=C/c3ccc(O)cc3)c(Br)c2)cc1 [K114],96.16%
3,CC(C)NC[C@H](O)COc1cccc2ccccc12.Cl [(S)-Propranolol hydrochloride],99.30%
4,Nc1nc2c(ncn2CCOCP(=O)(O)O)c(=O)[nH]1 [PMEG hydrate],99.36%
5,CCc1ccccc1OC[C@@H](O)CN[C@H]1CCCc2ccccc21.O=C(O)C(=O)O [SR 59230A oxalate],97.52%
6,CC(C)NC[C@@H](O)c1ccc(O)c(O)c1.O=C(O)C(O)C(O)C(=O)O [S(+)-Isoproterenol (+)-bitartrate],97.10%
7,CNCCNS(=O)(=O)c1cccc2cnccc12.Cl.Cl [H-8 dihydrochloride],99.57%
8,CC(C)[C@H]1c2ccc(F)cc2CC[C@@]1(CCN(C)CCCc1nc2ccccc2[nH]1)OC(=O)C1CC1 [NNC 55-0396],97.75%
9,O=[N+]([O-])/C=C/c1ccc2c(c1)OCO2 [MNS],99.63%
10,Cc1ccc(S(=O)(=O)N[C@@H](Cc2ccccc2)C(=O)CCl)cc1 [N-p-Tosyl-L-phenylalanine chloromethyl ketone],98.76%
11,Cn1c(=O)c(-c2c(Cl)cccc2Cl)cc2cnc(Nc3ccc(N4CCOCC4)cc3)nc21 [PD173952],96.16%
12,Nc1ccc(-c2nc3ccc(-c4nc5ccc(N)cc5[nH]4)cc3[nH]2)cc1 [RO 90-7501],99.67%
13,CS(=O)(=O)c1cccc(CNc2nc(Nc3ccc4c(c3)CCC(=O)N4)ncc2C(F)(F)F)c1 [PF-573228],97.23%
14,O=C(O)/C=C\C(=O)O.O=C1/C(=C/c2ccccc2)C[C@@]2(O)[C@H]3Cc4ccc(O)c5c4[C@@]2(CCN3CC2CC2)[C@H]1O5 [BNTX maleate salt hydrate],99.26%
15,COc1ccc(-c2cc3nccn3c(Nc3ncccc3C(N)=O)n2)cc1OC.Cl.O [BAY 61-3606 hydrochloride hydrate],95.05%
16,O=c1oc(Cl)c(Cl)c2ccccc12 [Dichloroisocoumarin],97.06%
17,"O=Nc1ccc2oc(=O)ccc2c1 [6-Nitroso-1,2-benzopyrone]",99.15%
18,COc1ccccc1CNCCCCCCNCCCCCCCCNCCCCCCNCc1ccccc1OC [Methoctramine tetrahydrochloride],98.94%
19,O=C(Nc1cccc(C(=O)Nc2ccc(S(=O)(=O)O)c3cc(S(=O)(=O)O)cc(S(=O)(=O)O)c23)c1)Nc1cccc(C(=O)Nc2ccc(S(=O)(=O)O)c3cc(S(=O)(=O)O)cc(S(=O)(=O)O)c23)c1 [NF 023],95.77%
20,NC(Cc1cc(O)c(O)cc1O)C(=O)O (racemic) [6-Hydroxy-DL-DOPA],96.67%
21,CC(=O)OC[C@H]1O[C@@H]([S-])[C@H](OC(C)=O)[C@@H](OC(C)=O)[C@@H]1OC(C)=O.CCP(CC)CC.[Au+] [Auranofin],96.08%
22,Cl.NCCCC(N)(C(=O)O)C(F)F (racemic) [DL-alpha-Difluoromethylornithine hydrochloride],97.06%
23,CCCN1CCC[C@@H](c2cccc(O)c2)C1.Cl [S(−)-3PPP hydrochloride],98.60%
24,"CCOC(=O)c1ncn2c1[C@@H]1CCCN1C(=O)c1cc(OC)ccc1-2 [L-655,708]",97.43%
25,CC1=C(/C=C/C(C)=C/C=C/C(C)=C/C(=O)Nc2ccc(O)cc2)C(C)(C)CCC1 [Retinoic acid p-hydroxyanilide],98.52%

# Same assay, conditions: Human immunodeficiency virus 1, TZM-bl, 48 h, read-out: % Inhibition at 10 μM Concentration
row,Structure (SMILES),inhibition at 10 µM
1,CNCCCC12CCC(c3ccccc31)c1ccccc12 [Maprotiline hydrochloride],98.9%
2,"O=C1c2ccccc2C(=O)c2c(NCCc3ccc(O)cc3)ccc(NCCc3ccc(O)cc3)c21 [1,4-Bis[(p-hydroxyphenethyl)amino]-anthraquinone]",98.9%
3,N#CC(=C(/N)Sc1ccccc1N)/C(C#N)=C(\N)Sc1ccccc1N [U0126],97.4%

# Same assay, conditions: Human immunodeficiency virus 1; 10 μM; HIV-1NL4.3 0.1 MOI; TZM-bl cells; luminescence 48 h; read-out: % Inhibition at 10 μM Concentration
row,Structure (SMILES),inhibition at 10 µM
1,NC(=O)CN1CC(O)CC1=O (stereo not drawn) [Oxiracetam],96.5%
2,CC1=NN=C(c2ccc(N)cc2)c2cc3c(cc2C1)OCO3 [GYKI 52466 hydrochloride],99.3%
3,COC(=O)C1=C(C)NC(C)=C(C(=O)OCCN(C)Cc2ccccc2)C1c1cccc([N+](=O)[O-])c1 (stereo not drawn) [Nicardipine hydrochloride],99.6%
4,CCN(CC)CCCC(C)Nc1c2ccc(Cl)cc2nc2ccc(OC)cc12 (stereo not drawn) [Quinacrine dihydrochloride],100%
5,CC[C@@]1(O)C(=O)OCc2c1cc1n(c2=O)Cc2cc3c(CN(C)C)c(O)ccc3nc2-1 [Topotecan hydrochloride hydrate],98.1%
6,COc1cc2nc(N3CCN(C(=O)C4COc5ccccc5O4)CC3)nc(N)c2cc1OC (stereo not drawn) [Doxazosin mesylate],100%
7,CCN(CC)CCOc1ccc(Nc2ncc3cc(-c4c(Cl)cccc4Cl)c(=O)n(C)c3n2)cc1 [PD-166285 hydrate],97%
8,Oc1c2ccccc2c2c3c(cccc13)N=N2 [SP600125],97.5%
9,OCCN1CCN(CCCN2c3ccccc3Sc3ccc(Cl)cc32)CC1 [Perphenazine],99.6%
10,O=C(O)C1=CC(=C(c2ccc(O)c(C(=O)O)c2)c2ccc(O)c(C(=O)O)c2)C=CC1=O [Aurintricarboxylic acid],97.2%
11,CCCCN(CC)c1nc(C)nc2c1c(C)cn2-c1c(C)cc(C)cc1C [CP-154526 hydrochloride],97.1%
12,Cc1ccc(-c2cc(C(F)(F)F)nn2-c2ccc(S(N)(=O)=O)cc2)cc1 [Celecoxib],95.1%
13,O=C1Cc2c([nH]c3ccc(Br)cc23)-c2ccccc2N1 [Kenpaullone],98.7%
14,CN[C@@H]1C[C@@H](c2ccc(Cl)c(Cl)c2)c2ccccc21 [Indatraline hydrochloride],97.4%
15,CC[N+](CC)(CC)CCOc1ccc(/C=C/c2ccccc2)cc1 [MG 624],97.1%
16,CNCCC=C1c2ccccc2CCc2ccccc21 [Nortriptyline hydrochloride],99.2%
17,CC(C)(C)c1ccc(C(O)CCCN2CCC(C(O)(c3ccccc3)c3ccccc3)CC2)cc1 (stereo not drawn) [Terfenadine],98.7%
18,O=C1c2c(O)ccc(O)c2C(=O)c2c(NCCNCCO)ccc(NCCNCCO)c21 [Mitoxantrone],97.1%
19,CC(=O)O[C@]1(C(C)=O)CC[C@H]2[C@@H]3C=C(Cl)C4=CC(=O)[C@@H]5C[C@@H]5[C@]4(C)[C@H]3CC[C@@]21C [Cyproterone acetate],98.5%
20,Cc1cnc(C(=O)NCCc2ccc(S(=O)(=O)NC(=O)NC3CCCCC3)cc2)cn1 [Glipizide],98.5%
21,CCCCNc1c(C(=O)OCC)c(C)nc2c1cnn2CC [Tracazolate],99.1%
22,CCCCc1ncc(/C=C(\Cc2cccs2)C(=O)O)n1Cc1ccc(C(=O)O)cc1 [Eprosartan mesylate],99.8%
23,N=C(N)N/N=C/c1c(Cl)cccc1Cl [Guanabenz acetate],99.6%
